Results taken from ChEMBL document CHEMBL1201862, “PubChem BioAssay data set” (2004).
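How tested: cells in 96-well plates exposed to compound for 48 hours at five concentrations. Here, GI50 denotes the concentration required for 50% inhibition of growth.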 The source made the active and inactive calls. Rule as the data show it: active = GI50 up to about 1.1 µM and inactive = higher.

What was measured:
Assay in all cases: NCI tumour cell line growth inhibition, 48 h
K562 = test system: K562
SF-268 = test system: SF-268
LOX IMVI = test system: LOX IMVI
RPMI-8226 = test system: RPMI-8226
Malme-3M = test system: Malme-3M
SF-539 = test system: SF-539
EKVX = test system: EKVX
HOP-92 = test system: HOP-92
SF-295 = test system: SF-295
SR = test system: SR
OVCAR-3 = test system: OVCAR-3
TK-10 = test system: TK-10
ACHN = test system: ACHN
UACC-257 = test system: UACC-257
SK-MEL-5 = test system: SK-MEL-5
NCI-H522 = test system: NCI-H522
OVCAR-5 = test system: OVCAR-5
SW-620 = test system: SW-620
A549 = test system: A549
A498 = test system: A498

SMILES | GI50 (K562) | GI50 (SF-268) | GI50 (LOX IMVI) | GI50 (RPMI-8226) | GI50 (Malme-3M) | GI50 (SF-539) | GI50 (EKVX) | GI50 (HOP-92) | GI50 (SF-295) | GI50 (SR) | GI50 (OVCAR-3) | GI50 (TK-10) | GI50 (ACHN) | GI50 (UACC-257) | GI50 (SK-MEL-5) | GI50 (NCI-H522) | GI50 (OVCAR-5) | GI50 (SW-620) | GI50 (A549) | GI50 (A498)
CCOC(=O)C(O)(NC(=O)c1ccccc1F)C(F)(F)F (stereo not given) | > 100 µM (inactive) | > 100 µM (inactive) | > 100 µM (inactive) | > 100 µM (inactive) | > 100 µM (inactive) | > 100 µM (inactive) | > 100 µM (inactive) | > 100 µM (inactive) | > 100 µM (inactive) | > 100 µM (inactive) | > 100 µM (inactive) | > 100 µM (inactive) | > 100 µM (inactive) | > 100 µM (inactive) | > 100 µM (inactive) | > 100 µM (inactive) | > 100 µM (inactive) | > 100 µM (inactive) | > 100 µM (inactive) | –
COc1cc([N+](=O)[O-])ccc1N1C(=O)C2c3[nH]c4ccccc4c3C3CCC(C(C)(C)C)CC3C2C1=O (stereo not given) | – | – | 18.5 µM (inactive) | > 100 µM (inactive) | > 100 µM (inactive) | 62.8 µM (inactive) | 33.4 µM (inactive) | 22 µM (inactive) | – | > 100 µM (inactive) | > 100 µM (inactive) | > 100 µM (inactive) | > 100 µM (inactive) | 76.4 µM (inactive) | 40.9 µM (inactive) | 42.4 µM (inactive) | 80.5 µM (inactive) | > 100 µM (inactive) | > 100 µM (inactive) | > 100 µM (inactive)
CCOC(=O)C1=C(C)NC(=O)N([N+](=O)[O-])C1c1ccccc1C(F)(F)F (stereo not given) | 72.6 µM (inactive) | 53.1 µM (inactive) | 31 µM (inactive) | 23.4 µM (inactive) | 24.3 µM (inactive) | 28 µM (inactive) | – | > 100 µM (inactive) | 57.7 µM (inactive) | 31.8 µM (inactive) | 47.5 µM (inactive) | 98.2 µM (inactive) | > 100 µM (inactive) | > 100 µM (inactive) | 42.3 µM (inactive) | – | > 100 µM (inactive) | 52.6 µM (inactive) | > 100 µM (inactive) | > 100 µM (inactive)
CSc1nc(NC2OCC(OC(C)=O)C(OC(C)=O)C2OC(C)=O)c(/N=C(\C)C(C)=O)c(=O)[nH]1 (stereo not given) | > 100 µM (inactive) | > 100 µM (inactive) | > 100 µM (inactive) | > 100 µM (inactive) | > 100 µM (inactive) | > 100 µM (inactive) | > 100 µM (inactive) | > 100 µM (inactive) | > 100 µM (inactive) | > 100 µM (inactive) | – | > 100 µM (inactive) | > 100 µM (inactive) | > 100 µM (inactive) | > 100 µM (inactive) | – | > 100 µM (inactive) | > 100 µM (inactive) | > 100 µM (inactive) | > 100 µM (inactive)
COc1ccc([C@H]2c3cc4c(cc3OC(O)(CO)[C@H]2C(=O)O)OCO4)c(OC)c1.COc1ccc([C@H]2c3cc4c(cc3OC3(O)COC(=O)[C@@H]23)OCO4)c(OC)c1 (stereo not given in full) | 71.1 µM (inactive) | > 100 µM (inactive) | 95.5 µM (inactive) | 41.9 µM (inactive) | > 100 µM (inactive) | > 100 µM (inactive) | > 100 µM (inactive) | > 100 µM (inactive) | > 100 µM (inactive) | 56 µM (inactive) | > 100 µM (inactive) | > 100 µM (inactive) | > 100 µM (inactive) | > 100 µM (inactive) | > 100 µM (inactive) | – | > 100 µM (inactive) | > 100 µM (inactive) | > 100 µM (inactive) | > 100 µM (inactive)
CC1(C)OCC(CO)(CO)CO1 | > 100 µM (inactive) | > 100 µM (inactive) | > 100 µM (inactive) | – | – | – | – | > 100 µM (inactive) | > 100 µM (inactive) | > 100 µM (inactive) | > 100 µM (inactive) | > 100 µM (inactive) | > 100 µM (inactive) | > 100 µM (inactive) | > 100 µM (inactive) | > 100 µM (inactive) | – | > 100 µM (inactive) | > 100 µM (inactive) | 14 µM (inactive)
COc1ccc(C(=O)C2CC3(CCC2(O)c2ccc(OC)cc2)CC(=O)Nc2ccccc2C3=O)cc1 (stereo not given) | > 100 µM (inactive) | > 100 µM (inactive) | > 100 µM (inactive) | – | > 100 µM (inactive) | > 100 µM (inactive) | > 100 µM (inactive) | 0.5 µM (active) | > 100 µM (inactive) | > 100 µM (inactive) | > 100 µM (inactive) | > 100 µM (inactive) | – | > 100 µM (inactive) | 4.98 µM (inactive) | – | > 100 µM (inactive) | > 100 µM (inactive) | > 100 µM (inactive) | > 100 µM (inactive)
Oc1nc2ccccc2c2oc3ccccc3c12 | > 100 µM (inactive) | > 100 µM (inactive) | – | – | > 100 µM (inactive) | > 100 µM (inactive) | 2.9 µM (inactive) | 23.2 µM (inactive) | > 100 µM (inactive) | > 100 µM (inactive) | > 100 µM (inactive) | > 100 µM (inactive) | > 100 µM (inactive) | > 100 µM (inactive) | > 100 µM (inactive) | > 100 µM (inactive) | – | > 100 µM (inactive) | > 100 µM (inactive) | > 100 µM (inactive)
